In patent US20140163012A1, “PYRIDO-/AZEPINO-BENZOFURAN AND PYRIDO-/AZEPINO-BENZOTHIOPHENE MCH-1 ANTAGONISTS, METHODS OF MAKING, AND USE THEREOF” (Albany Molecular Research, Inc., priority 2012, published 2014):
Where a name gives a salt, the structure may show the parent alone.

Target: human MCH-1 receptor (Homo sapiens, UniProt Q99705)
Experiment: Binding assay for human melanin-concentrating hormone (MCH-1) receptor, radioligand displacement on CHO-K1 cell membranes
Description: Nonspecific binding was determined in the presence of 50 μM 1-(5-(4-cyanophenyl)bicyclo[3.1.0]hexan-2-yl)-3-(4-fluoro-3-(trifluoromethyl)phenyl)-1-(3-(4-methylpiperazin-1-yl)propyl)urea. […] The filters were counted for radioactivity in a liquid scintillation counter (Tri-Carb 2100TR, Packard) using a scintillation cocktail (Ultima Gold MV, Perkin Elmer).
The results are expressed as a percent inhibition of the control radioligand specific binding. The IC50 value (concentration causing a half-maximal inhibition of control specific binding) and Hill coefficient (nH) were determined by non-linear regression analysis of the competition curve using Hill equation curve fitting.

Sequence of human MCH-1 receptor (Q99705 whole entry): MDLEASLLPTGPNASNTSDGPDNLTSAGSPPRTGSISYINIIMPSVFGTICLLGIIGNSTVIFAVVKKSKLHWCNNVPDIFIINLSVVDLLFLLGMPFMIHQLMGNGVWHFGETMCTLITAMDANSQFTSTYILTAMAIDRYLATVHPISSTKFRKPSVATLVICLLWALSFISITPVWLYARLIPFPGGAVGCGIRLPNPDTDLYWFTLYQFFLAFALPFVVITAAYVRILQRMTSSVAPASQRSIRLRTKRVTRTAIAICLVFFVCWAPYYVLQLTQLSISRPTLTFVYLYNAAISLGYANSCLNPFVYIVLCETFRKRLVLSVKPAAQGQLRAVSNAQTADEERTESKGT

Ki | SMILES
8.2 nM | O=c1cc(OCc2ccccc2)ccn1-c1ccc2c3c(sc2c1)CNCCC3 [Example 19, 4-(Benzyloxy)-1-(2,3,4,5-tetrahydro-1H-benzothieno[2,3-c]azepin-8-yl)pyridin-2(1H)-one]
3.8 nM | O=c1cc(OCc2ccc(Cl)cn2)ccn1-c1ccc2c3c(sc2c1)CCNCC3 [Example 20, 4-((5-Chloropyridin-2-yl)methoxy)-1-(2,3,4,5-tetrahydro-1H-benzothieno[2,3-d]azepin-8-yl)pyridin-2(1H)-one]
3.8 nM | O=c1cc(OCc2ccc(F)cn2)ccn1-c1ccc2c3c(sc2c1)CCNCC3 [Example 21, 4-((5-Fluoropyridin-2-yl)methoxy)-1-(2,3,4,5-tetrahydro-1H-benzothieno[2,3-d]azepin-8-yl)pyridin-2(1H)-one]
4.4 nM | O=c1cc(OCc2ccccc2)ccn1-c1ccc2c3c(sc2c1)CCNCC3 [Example 22, 4-(Benzyloxy)-1-(2,3,4,5-tetrahydro-1H-benzothieno[2,3-d]azepin-8-yl)pyridin-2(1H)-one]
11 nM | CN1CCc2oc3cc(-n4ccc(OCc5ccc(F)cn5)cc4=O)ccc3c2C1 [Example 23, 4-((5-Fluoropyridin-2-yl)methoxy)-1-(2-methyl-1,2,3,4-tetrahydrobenzofuro[3,2-c]pyridin-7-yl)pyridin-2(1H)-one hydrochloride]
13 nM | CCN1CCc2oc3cc(-n4ccc(OCc5ccc(F)cn5)cc4=O)ccc3c2C1 [Example 24, 1-(2-Ethyl-1,2,3,4-tetrahydrobenzofuro[3,2-c]pyridin-7-yl)-4-((5-fluoropyridin-2-yl)methoxy)pyridin-2(1H)-one]
23 nM | CC(=O)N1CCc2oc3cc(-n4ccc(OCc5ccccc5)cc4=O)ccc3c2C1 [Example 25, 1-(2-Acetyl-1,2,3,4-tetrahydrobenzofuro[3,2-c]pyridin-7-yl)-4-(benzyloxy)pyridin-2(1H)-one]
4.9 nM | CCN1CCc2oc3cc(-n4ccc(OCc5ccccc5)cc4=O)ccc3c2C1 [Example 26, 4-(Benzyloxy)-1-(2-ethyl-1,2,3,4-tetrahydrobenzofuro[3,2-c]pyridin-7-yl)pyridin-2(1H)-one]
8.1 nM | CN1CCc2oc3cc(-n4ccc(OCc5ccccc5)cc4=O)ccc3c2C1 [Example 27, 4-(Benzyloxy)-1-(2-methyl-1,2,3,4-tetrahydrobenzofuro[3,2-c]pyridin-7-yl)pyridin-2(1H)-one hydrochloride]
9.8 nM | CC(C)N1CCc2oc3cc(-n4ccc(OCc5ccc(F)cn5)cc4=O)ccc3c2C1 [Example 28, 4-((5-Fluoropyridin-2-yl)methoxy)-1-(2-isopropyl-1,2,3,4-tetrahydrobenzofuro[3,2-c]pyridin-7-yl)pyridin-2(1H-one hydrochloride]

Continued, compound first:

SMILES | Ki
O=c1cc(OCc2ccccc2)ccn1-c1ccc2c3c(oc2c1)CNCC3 [Example 2, 4-(Benzyloxy)-1-(1,2,3,4-tetrahydrobenzofuro[2,3-c]pyridin-7-yl)pyridin-2(1H)-one hydrochloride] | 23 nM
O=c1cc(OCc2ccc(F)cn2)ccn1-c1ccc2c3c(oc2c1)CNCC3 [Example 3, 4-((5-Fluoropyridin-2-yl)methoxy)-1-(1,2,3,4-tetrahydrobenzofuro[2,3-c]pyridin-7-yl)pyridin-2(1H)-one hydrochloride] | 59 nM
O=c1cc(-c2ccc(C(F)(F)F)nc2)ccn1-c1ccc2c3c(oc2c1)CNCC3 [Example 4, 1′-(1,2,3,4-Tetrahydrobenzofuro[2,3-c]pyridin-7-yl)-6-(trifluoromethyl)-[3,4′-bipyridin]-2′(1′H)-one hydrochloride] | 1310 nM
O=c1cc(-c2ccc(C(F)(F)F)nc2)ccn1-c1ccc2c3c(oc2c1)CCNC3 [Example 5, 1′-(1,2,3,4-Tetrahydrobenzofuro[3,2-c]pyridin-7-yl)-6-(trifluoromethyl)-[3,4′-bipyridin]-2′(1′H)-one hydrochloride] | 56 nM
O=c1cc(OCc2ccccc2)ccn1-c1ccc2c3c(oc2c1)CCNC3 [Example 6, 4-(Benzyloxy)-1-(1,2,3,4-tetrahydrobenzofuro[3,2-c]pyridin-7-yl)pyridin-2(1H)-one hydrochloride] | 3.3 nM
O=c1cc(OCc2ccc(F)cn2)ccn1-c1ccc2c3c(oc2c1)CCNC3 [Example 7, 4-((5-Fluoropyridin-2-yl)methoxy)-1-(1,2,3,4-tetrahydrobenzofuro[3,2-c]pyridin-7-yl)pyridin-2(1H)-one hydrochloride] | 7.3 nM
C[C@@H]1Cc2oc3cc(-n4ccc(OCc5ccccn5)cc4=O)ccc3c2CN1 [Example 8, (R)-1-(3-Methyl-1,2,3,4-tetrahydrobenzofuro[3,2-c]pyridin-7-yl)-4-(pyridin-2-ylmethoxy)pyridin-2(1H)-one hydrochloride] | 57 nM
C[C@@H]1Cc2oc3cc(-n4ccc(OCc5ccc(F)cn5)cc4=O)ccc3c2CN1 [Example 9, (R)-4-((5-Fluoropyridin-2-yl)methoxy)-1-(3-methyl-1,2,3,4-tetrahydrobenzofuro[3,2-c]pyridin-7-yl)pyridin-2(1H)-one] | 10 nM
O=c1cc(OCc2ccc(Cl)cn2)ccn1-c1ccc2c3c(oc2c1)CCNC3 [Example 10, 4-((5-Chloropyridin-2-yl)methoxy)-1-(1,2,3,4-tetrahydrobenzofuro[3,2-c]pyridin-7-yl)pyridin-2(1H)-one hydrochloride] | 3.3 nM
O=c1cc(-c2ccc(C(F)(F)F)cn2)ccn1-c1ccc2c3c(oc2c1)CCNC3 [Example 11, 1′-(1,2,3,4-Tetrahydrobenzofuro[3,2-c]pyridin-7-yl)-5-(trifluoromethyl)-[2,4′-bipyridin]-2′(1′H)-one hydrochloride] | 166 nM
O=c1cc(-c2ccc(C(F)(F)F)cn2)ccn1-c1ccc2c3c(sc2c1)CNCC3 [Example 12, 1-(1,2,3,4-Tetrahydrobenzothieno[2,3-c]pyridin-7-yl)-4-(5-(trifluoromethyl)pyridin-2-yl)pyridin-2(1H)-one hydrochloride] | 93 nM
O=c1cc(OCc2ccc(Cl)cn2)ccn1-c1ccc2c3c(sc2c1)CNCC3 [Example 13, 4-((5-Chloropyridin-2-yl)methoxy)-1-(1,2,3,4-tetrahydrobenzothieno[2,3-c]pyridin-7-yl)pyridin-2(1H)-one hydrochloride] | 3.1 nM
O=c1cc(OCc2ccc(F)cn2)ccn1-c1ccc2c3c(sc2c1)CNCC3 [Example 14, 4-((5-Fluoropyridin-2-yl)methoxy)-1-(1,2,3,4-tetrahydrobenzothieno[2,3-c]pyridin-7-yl)pyridin-2(1H)-one hydrochloride] | 6.2 nM
O=c1cc(OCc2ccccc2)ccn1-c1ccc2c3c(sc2c1)CNCC3 [Example 15, 4-(Benzyloxy)-1-(1,2,3,4-tetrahydrobenzothieno[2,3-c]pyridin-7-yl)pyridin-2(1H)-one] | 4 nM
O=c1cc(-c2ccc(C(F)(F)F)cn2)ccn1-c1ccc2c3c(sc2c1)CNCCC3 [Example 17, 1-(2,3,4,5-Tetrahydro-1H-benzothieno[2,3-c]azepin-8-yl)-4-(5-(trifluoromethyl)pyridin-2-yl)pyridin-2(1H)-one] | 927 nM
O=c1cc(OCc2ccc(F)cn2)ccn1-c1ccc2c3c(sc2c1)CNCCC3 [Example 18, 4-((5-Fluoropyridin-2-yl)methoxy)-1-(2,3,4,5-tetrahydro-1H-benzothieno[2,3-c]azepin-8-yl)pyridin-2(1H)-one] | 12 nM
